Experimental data: ChEMBL document CHEMBL3046129, “Synthesis and pharmacological evaluation of N-(6-chlorobenzo[d]thiazol-2-yl)hydrazine carboxamide derivatives of benzothiazole” (Med Chem Res, 2013)

Tests used:
Rattus norvegicus [1] = assay: Potency index, Rattus norvegicus (rat)io of ibuprofen anti-inflammatory activity to compound anti-inflammatory activity in Wistar Rattus norvegicus (rat) at 70 mg/kg, po administered 1 hr prior to carrageenan-challenge measured after 4 hr by plethysmometer analysis; type: functional
Rattus norvegicus [2] = assay: Anti-inflammatory activity in Wistar Rattus norvegicus (rat) assessed as inhibition of carrageenan-induced paw edema at 70 mg/kg, po administered 1 hr prior to carrageenan-challenge measured after 4 hr by plethysmometer analysis; type: functional
Rattus norvegicus [3] = assay: Anti-inflammatory activity in Wistar Rattus norvegicus (rat) assessed as inhibition of carrageenan-induced paw edema at 70 mg/kg, po administered 1 hr prior to carrageenan-challenge measured after 3 hr by plethysmometer analysis; type: functional
Rattus norvegicus [4] = assay: Effect on lipid peroxidation in Wistar Rattus norvegicus (rat) gastric mucosa assessed as malondialdehyde content at 210 mg/kg, po measured per 100 mg of tissue by UV spectrophotometric analysis (reference value: 3.26 +/-0.01 nmol); type: ADME, organism-based; parameters: dose 210 mg/kg, route oral; details: in vivo
Rattus norvegicus [5] = assay: Gastrointestinal toxicity in Wistar Rattus norvegicus (rat) assessed as ulcerogenicity index at 210 mg/kg, po (reference value: 0 No unit); type: organism-based; parameters: dose 210 mg/kg, route oral; details: in vivo
Mus musculus [6] = assay: Analgesic activity in Swiss albino Mus musculus (mouse) assessed as inhibition of pain at 70 mg/kg, po measured after 4 hr by tail immersion method; type: functional
Mus musculus [7] = assay: Potency index, ratio of ibuprofen analgesic activity to compound analgesic in Swiss albino Mus musculus (mouse) at 70 mg/kg, po measured after 4 hr by tail immersion method; type: functional
Mus musculus [8] = assay: Analgesic activity in Swiss albino Mus musculus (mouse) assessed as time required for tail withdrawal at 70 mg/kg, po measured after 4 hr by tail immersion method; type: functional
Rattus norvegicus [9] = assay: Hepatotoxicity in Wistar albino Rattus norvegicus (rat) assessed as serum total albumin level at 210 mg/kg, po qd for 15 days (reference value: 1.63 +/-0.02 g/dl); type: toxicity, organism-based; parameters: dose 210 mg/kg, route oral; details: in vivo, 360 h
Rattus norvegicus [10] = assay: Hepatotoxicity in Wistar albino Rattus norvegicus (rat) assessed as serum total protein level at 210 mg/kg, po qd for 15 days (reference value: 1.72 +/-0.02 g/dl); type: toxicity, organism-based; parameters: dose 210 mg/kg, route oral; details: in vivo, 360 h
Rattus norvegicus [11] = assay: Hepatotoxicity in Wistar albino Rattus norvegicus (rat) assessed as serum alkaline phosphatase activity at 210 mg/kg, po qd for 15 days; type: toxicity, organism-based; parameters: dose 210 mg/kg, route oral; details: in vivo, 360 h
Rattus norvegicus [12] = assay: Hepatotoxicity in Wistar albino Rattus norvegicus (rat) assessed as serum glutamate pyruvate transaminase activity at 210 mg/kg, po qd for 15 days (reference value: 32.46 +/-0.76 units/ml); type: toxicity, organism-based; parameters: dose 210 mg/kg, route oral; details: in vivo, 360 h
Rattus norvegicus [13] = assay: Hepatotoxicity in Wistar albino Rattus norvegicus (rat) assessed as serum glutamate oxaloacetate transaminase activity at 210 mg/kg, po qd for 15 days (reference value: 143.71 +/-1.10 units/ml); type: toxicity, organism-based; parameters: dose 210 mg/kg, route oral; details: in vivo, 360 h
Rattus norvegicus [14] = assay: Hepatotoxicity in Wistar albino Rattus norvegicus (rat) assessed as hepatocyte with clearing of cytoplasm and compression of sinusoidal spaces at 210 mg/kg, po qd for 15 days measured after 24 hr of last dosage of drug by hematoxylin-eosin staining based light microscopy; type: toxicity, organism-based, Sinusoidal space; parameters: dose 210 mg/kg, route oral; details: hepatocytes
Rattus norvegicus [15] = assay: Hepatotoxicity in Wistar albino Rattus norvegicus (rat) assessed as hepatocyte necrosis and degeneRattus norvegicus (rat)ion at 210 mg/kg, po qd for 15 days measured after 24 hr of last dosage of drug by hematoxylin-eosin staining based light microscopy; type: toxicity, organism-based; parameters: dose 210 mg/kg, route oral; details: hepatocytes

For `Clc1ccc2nc(Nc3nnc4sc(-c5ccccc5Cl)nn34)sc2c1`, the Ratio (Rattus norvegicus [1]) was 0.61, the inhibition in vivo at 70 mg/kg (Rattus norvegicus [2]) was 50.8% and the inhibition in vivo at 70 mg/kg (Rattus norvegicus [3]) was 41.7%.
Compound `Clc1ccc2nc(Nc3nnc(-c4ccccc4)o3)sc2c1` has an Activity (Rattus norvegicus [4]) of 4.47 nmol, a UI (Rattus norvegicus [5]) of 1.667 and an inhibition in vivo at 70 mg/kg (Mus musculus [6]) of 61.1%. For the same compound, the Ratio (Mus musculus [7]) was 0.74, the Time (Mus musculus [8]) was 1.45 s and the Ratio (Rattus norvegicus [1]) was 1.06. For the same compound, the inhibition in vivo at 70 mg/kg (Rattus norvegicus [2]) was 88.3% and the inhibition in vivo at 70 mg/kg (Rattus norvegicus [3]) was 78.8%.
`CC(=O)Oc1ccccc1-c1nn2c(Nc3nc4ccc(Cl)cc4s3)nnc2s1` showed a Ratio (Rattus norvegicus [1]) of 0.24, an inhibition in vivo at 70 mg/kg (Rattus norvegicus [2]) of 20.6% and an inhibition in vivo at 70 mg/kg (Rattus norvegicus [3]) of 10%.
`Clc1ccc2nc(Nc3nnc4sc(-c5ccccc5)nn34)sc2c1` gave a Ratio (Rattus norvegicus [1]) of 0.7, an inhibition in vivo at 70 mg/kg (Rattus norvegicus [2]) of 57.9% and an inhibition in vivo at 70 mg/kg (Rattus norvegicus [3]) of 48.3%.
Compound `Clc1ccc2nc(Nc3nnc(-c4ccccc4Cl)o3)sc2c1` has a Ratio (Rattus norvegicus [1]) of 0.64, an inhibition in vivo at 70 mg/kg (Rattus norvegicus [2]) of 53.2% and an inhibition in vivo at 70 mg/kg (Rattus norvegicus [3]) of 53%.
Work on `Clc1ccc2nc(Nc3nnc(Oc4ccccc4)o3)sc2c1` yielded an Activity (Rattus norvegicus [4]) of 9.1 nmol, a UI (Rattus norvegicus [5]) of 1.083 and an inhibition in vivo at 70 mg/kg (Mus musculus [6]) of 52%. For the same compound, the Ratio (Mus musculus [7]) was 0.63, the Time (Mus musculus [8]) was 1.9 s and the Ratio (Rattus norvegicus [1]) was 1.07. It also gave an inhibition in vivo at 70 mg/kg (Rattus norvegicus [2]) of 88.8% and an inhibition in vivo at 70 mg/kg (Rattus norvegicus [3]) of 74.2%.
`CC(=O)Oc1ccccc1-c1nnc(Nc2nc3ccc(Cl)cc3s2)o1` showed a Ratio (Rattus norvegicus [1]) of 0.61, an inhibition in vivo at 70 mg/kg (Rattus norvegicus [2]) of 50.8% and an inhibition in vivo at 70 mg/kg (Rattus norvegicus [3]) of 31%.
With `Cc1ccccc1-c1nn2c(Nc3nc4ccc(Cl)cc4s3)nnc2s1` the Activity (Rattus norvegicus [4]) was 7.44 nmol, the UI (Rattus norvegicus [5]) was 1.583 and the inhibition in vivo at 70 mg/kg (Mus musculus [6]) was 76.9%. The Ratio (Mus musculus [7]) was 0.93, the Time (Mus musculus [8]) was 2.83 s and the Ratio (Rattus norvegicus [1]) was 1.07. The inhibition in vivo at 70 mg/kg (Rattus norvegicus [2]) was 88.8% and the inhibition in vivo at 70 mg/kg (Rattus norvegicus [3]) was 77.5%.
`Clc1ccc2nc(Nc3nnc4sc(Oc5ccccc5)nn34)sc2c1` was tested, and the Activity (Rattus norvegicus [9]) was 1.74 g/dL, the Activity (Rattus norvegicus [10]) was 1.79 g/dL and the Activity (Rattus norvegicus [11]) was “Non-toxic”. It also gave an Activity (Rattus norvegicus [12]) of 28.33 U/ml, an Activity (Rattus norvegicus [13]) of 131.18 U/ml and an Activity (Rattus norvegicus [4]) of 3.04 nmol. The UI (Rattus norvegicus [5]) was 0.666, the inhibition in vivo at 70 mg/kg (Mus musculus [6]) was 75% and the Ratio (Mus musculus [7]) was 0.91. It also gave a Time (Mus musculus [8]) of 2.17 s, a Ratio (Rattus norvegicus [1]) of 1.08 and an inhibition in vivo at 70 mg/kg (Rattus norvegicus [2]) of 89.7%. The inhibition in vivo at 70 mg/kg (Rattus norvegicus [3]) was 78.3%, the Activity (Rattus norvegicus [14]) was “Toxic” and the Activity (Rattus norvegicus [15]) was “Non-toxic”.
`Clc1ccc(-c2nnc(Nc3nc4ccc(Cl)cc4s3)o2)c(Cl)c1` was tested, and the Activity (Rattus norvegicus [9]) was 1.7 g/dL, the Activity (Rattus norvegicus [10]) was 1.75 g/dL and the Activity (Rattus norvegicus [11]) was “Non-toxic”. For the same compound, the Activity (Rattus norvegicus [12]) was 30.74 U/ml, the Activity (Rattus norvegicus [13]) was 138.42 U/ml and the Activity (Rattus norvegicus [4]) was 3.29 nmol. For the same compound, the UI (Rattus norvegicus [5]) was 0.917, the inhibition in vivo at 70 mg/kg (Mus musculus [6]) was 79% and the Ratio (Mus musculus [7]) was 0.96. It also gave a Time (Mus musculus [8]) of 2.22 s, a Ratio (Rattus norvegicus [1]) of 1.05 and an inhibition in vivo at 70 mg/kg (Rattus norvegicus [2]) of 87.1%. For the same compound, the inhibition in vivo at 70 mg/kg (Rattus norvegicus [3]) was 80%, the Activity (Rattus norvegicus [14]) was “Toxic” and the Activity (Rattus norvegicus [15]) was “Non-toxic”.
For `Clc1ccc(-c2nn3c(Nc4nc5ccc(Cl)cc5s4)nnc3s2)c(Cl)c1`, the Activity (Rattus norvegicus [4]) was 5.74 nmol, the UI (Rattus norvegicus [5]) was 0.925 and the inhibition in vivo at 70 mg/kg (Mus musculus [6]) was 75.4%. It also gave a Ratio (Mus musculus [7]) of 0.92, a Time (Mus musculus [8]) of 2.21 s and a Ratio (Rattus norvegicus [1]) of 1.08. For the same compound, the inhibition in vivo at 70 mg/kg (Rattus norvegicus [2]) was 89.6% and the inhibition in vivo at 70 mg/kg (Rattus norvegicus [3]) was 80%.
In the case of `Cc1ccccc1-c1nnc(Nc2nc3ccc(Cl)cc3s2)o1`, the Ratio (Rattus norvegicus [1]) is reported as 0.45, the inhibition in vivo at 70 mg/kg (Rattus norvegicus [2]) is reported as 37.7% and the inhibition in vivo at 70 mg/kg (Rattus norvegicus [3]) is reported as 23.9%.
For `O=[N+]([O-])c1ccc(-c2nn3c(Nc4nc5ccc(Cl)cc5s4)nnc3s2)cc1`, the Ratio (Rattus norvegicus [1]) was 0.8, the inhibition in vivo at 70 mg/kg (Rattus norvegicus [2]) was 66.7% and the inhibition in vivo at 70 mg/kg (Rattus norvegicus [3]) was 53.3%.
In the case of `CC(C)Cc1ccc(C(C)C(=O)O)cc1` (stereo not given) [IBUPROFEN], the Activity (Rattus norvegicus [9]) is reported as 1.71 g/dL, the Activity (Rattus norvegicus [10]) is reported as 1.74 g/dL and the Activity (Rattus norvegicus [11]) is reported as “Toxic”. The Activity (Rattus norvegicus [12]) was 34.26 U/ml, the Activity (Rattus norvegicus [13]) was 140.14 U/ml and the Activity (Rattus norvegicus [4]) was 7.51 nmol. The UI (Rattus norvegicus [5]) was 2.315, the inhibition in vivo at 70 mg/kg (Mus musculus [6]) was 73.5% and the Time (Mus musculus [8]) was 2.6 s. For the same compound, the inhibition in vivo at 70 mg/kg (Rattus norvegicus [2]) was 82.7% and the inhibition in vivo at 70 mg/kg (Rattus norvegicus [3]) was 78.2%.
Compound `Sc1nnc(Nc2nc3ccc(Cl)cc3s2)o1` has an Activity (Rattus norvegicus [4]) of 9.04 nmol, a UI (Rattus norvegicus [5]) of 2.166 and an inhibition in vivo at 70 mg/kg (Mus musculus [6]) of 72.3%. The Ratio (Mus musculus [7]) was 0.88, the Time (Mus musculus [8]) was 2.24 s and the Ratio (Rattus norvegicus [1]) was 0.84. It also gave an inhibition in vivo at 70 mg/kg (Rattus norvegicus [2]) of 69.8% and an inhibition in vivo at 70 mg/kg (Rattus norvegicus [3]) of 61.7%.
`CC.O=[N+]([O-])c1ccc(-c2nnc(Nc3nc4ccc(Cl)cc4s3)o2)cc1` gave a Ratio (Rattus norvegicus [1]) of 0.39, an inhibition in vivo at 70 mg/kg (Rattus norvegicus [2]) of 32.5% and an inhibition in vivo at 70 mg/kg (Rattus norvegicus [3]) of 19.2%.
